Activity calls are given as the source filed them.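 How the source made its calls: active means growth-inhibition EC50 no more than tenfold above the top tested dose; inconclusive means flat fit between 30% and 70% inhibition, or unreliable fit; inactive means EC50 more than tenfold above the top tested dose.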
The compounds below were run on E. coli NEB5alpha growth, BacTiter-Glo luminescence, 4 h (assay: antibacterial activity against E. coli NEB5alpha – luminescence, counter-screen for MEX-5/POS-1 RNA-binding inhibitor project, dose response (AID 1959);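 further: pUC19-transformed ampicillin-resistant cells grown in LB with ampicillin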).

| SMILES | EC50 |
| --- | --- |
| COc1cccc(N2C(=O)/C(=C/c3ccc(C)o3)C(=O)NC2=S)c1 | > 11 µM (inactive) |
| N#C/C(=C/c1ccc(CNS(=O)(=O)c2ccccc2)o1)C(=O)NCc1ccccc1 | > 11 µM (inactive) |
| CCC(NC(C)C)C(O)c1ccc(O)c(O)c1 (configuration not stated) | > 11 µM (inactive) |
| CN1c2ccc(C=O)c3c(C=O)ccc(c23)N(C)C1(C)C | > 11 µM (inactive) |
| COCCCNC(CC(=O)Nc1cc(C)cc(C)c1)C(=O)O (configuration not stated) | > 11 µM (inactive) |
| Cc1cccc(NC(=O)CN2C(=O)N/C(=C\c3cccn3-c3cccc(C(=O)O)c3)C2=O)c1 | > 11 µM (inactive) |
| O=c1[nH]n(-c2ncnc3c2cnn3-c2ccccc2)c(=O)c2ccccc12 | > 11 µM (inactive) |
| CN1CCC2(CC1)C(C#N)=C(N)NC(S)=C2C#N | > 11 µM (inactive) |
| COC(=O)CCC(=O)OC1(C)C(=O)C=C2C=C(C3CC3)N(c3ccc(CO)cc3)C=C2C1=O (configuration not stated) | > 11 µM (inactive) |
| NC(=O)c1c(NC(=O)c2c(F)cccc2F)sc2c1CCN(Cc1ccccc1)C2 | > 11 µM (inactive) |
| CC1(OC(=O)c2ccc(Cl)nc2)C(=O)C=C2C=C(C3CC3)OC=C2C1=O (configuration not stated) | > 11 µM (inactive) |
| CC(=O)c1cc(NC(=O)c2cccc(C(F)(F)F)c2)c(=O)oc1/C=C/N(C)C | > 11 µM (inactive) |
| O=C(O)CCC(=O)N1N=C(c2cccs2)CC1c1cn(-c2ccccc2)nc1-c1ccccc1 (configuration not stated) | > 11 µM (inactive) |
| N#CC(C#N)=Cc1ccc(N2CCOCC2)cc1 | > 11 µM (inactive) |
| O=c1[nH]c(CSc2ncccn2)nc2c1cnn2-c1ccccc1 | > 11 µM (inactive) |
| CCOC(=O)C1Nc2ccc(C(=O)O)cc2C2C=CCC12 (configuration not stated) | > 11 µM (inactive) |
| CCOC(=O)C1=C(O)/C(=C/c2cn(CC(=O)N3CCCC3)c3ccccc23)SC1=Nc1ccccc1 | > 11 µM (inactive) |
| CC1(C)c2[nH]c3ccccc3c2C[C@@H]2C(=O)N(c3ccc(F)cc3F)C(=O)N21 | > 11 µM (inactive) |
| C=CCn1c(Cc2nc3ccccc3[nH]2)n[nH]c1=S | > 11 µM (inactive) |
| CCCN1CC=C2C(C#N)=C(N)C(C#N)(C#N)C(c3cc(OC)ccc3OC)C2C1 (configuration not stated) | > 11 µM (inactive) |
| NS(=O)(=O)c1ccc(NC(=S)NNC(=O)CCC(=O)Nc2ccccc2Cl)cc1 | > 11 µM (inactive) |
| N#Cc1c(-c2ccccc2Cl)c2c([nH]c1=O)-c1ccccc1OC2 | > 11 µM (inactive) |
| O=C(O)c1cc(-c2ccc(/C=N/Nc3ccc([N+](=O)[O-])cn3)o2)ccc1Cl | > 11 µM (inactive) |

| SMILES | EC50 |
| --- | --- |
| O=C(O)c1ccccc1NS(=O)(=O)c1ccc(NNC(=S)Nc2ccc(OC(F)F)cc2)c([N+](=O)[O-])c1 | > 11 µM (inactive) |
| N#C/C(=C/c1cccn1-c1cccc(C(=O)O)c1)c1ccc(Cl)cc1 | > 11 µM (inactive) |
| CCOC(=O)C1Nc2c(F)cc(C)cc2C2C=CCC12 (configuration not stated) | > 11 µM (inactive) |
| N#CC1=C(N)Oc2cc(O)c(Cl)cc2C1c1ccccc1F (configuration not stated) | > 11 µM (inactive) |
| CN(C)c1ccc(/C=C(\C#N)C(=O)NCc2ccco2)cc1 | > 11 µM (inactive) |
| O=C1NC(=O)C(=Cc2cn(CCOc3ccc4c(c3)OCO4)c3ccccc23)C(=O)N1 | > 11 µM (inactive) |
| Cc1[nH][nH]c(=O)c1/C=N/N1CCOCC1 | > 11 µM (inactive) |
| COc1ccccc1C(=O)C1CCCN(C(=O)c2cccnc2SC)C1 (configuration not stated) | > 11 µM (inactive) |
| CCOc1ccccc1N1CCN(C(=O)CNC(=O)c2ccccc2F)CC1 | > 11 µM (inactive) |
| CC(=NCc1ccc2c(c1)OCO2)c1c(O)n(-c2ccccc2)c(=O)[nH]c1=O | > 11 µM (inactive) |
| Cc1ccc(NC(=O)COc2ccc(/C=C3/SC(=Nc4ccccc4)N(Cc4cccnc4)C3=O)cc2)cc1 | > 11 µM (inactive) |
| CC(C)(C)OC(=O)NC(Cc1ccccc1)C(=O)N1CCC(C(=O)NCC(=O)Nc2ccc(F)cc2)CC1 (configuration not stated) | > 11 µM (inactive) |
| CC(=O)N(C)c1ccc(N=Nc2c(C)[nH]n(C(N)=S)c2=O)cc1 | > 11 µM (inactive) |
| O=C1CS/C(=C\[N+](=O)[O-])N1c1ccccc1 | > 11 µM (inactive) |
| COc1ccc(S(=O)(=O)C(C#N)c2nc3ccccc3nc2N2CCC(C)CC2)cc1 (configuration not stated) | > 11 µM (inactive) |
| CC(=O)Nc1cccc(Oc2nc(-c3ccccn3)nc3ccccc23)c1 | > 11 µM (inactive) |
| COc1ccc(OC)c(/C=c2\sc3nc(-c4cccs4)nn3c2=O)c1 | > 11 µM (inactive) |
| CC(C)(C)c1ccc(/C=C2\Oc3cc(O)ccc3C2=O)cc1 | > 11 µM (inactive) |
| COC(=O)c1cc(C(=O)OC)cc(-n2c(C)cc(C(=O)COC(=O)CNS(=O)(=O)c3ccc(C)cc3)c2C)c1 | > 11 µM (inactive) |
| CCCCOc1ccc(/C=C2/Sc3ccccc3C2=O)cc1 | > 11 µM (inactive) |
| O=C(O)c1ccc(-n2c(-c3cc(-c4ccco4)[nH]n3)n[nH]c2=S)cc1 | > 11 µM (inactive) |
| COc1ccc(NC(=O)C2Cc3ccccc3CN2C(=O)c2ccccc2)cn1 (configuration not stated) | > 11 µM (inactive) |
| O=C1c2cccc3c(N4CCCCC4)ccc(c23)C(=O)N1c1ccccn1 | > 11 µM (inactive) |

| SMILES | EC50 |
| --- | --- |
| Nc1nnc(C(=O)c2ccccc2N)s1 | > 11 µM (inactive) |
| COc1ccc(C2C(C#N)=C(N)OC3=C2C(=O)CC(C)(C)C3)cc1Cn1nc(C)c([N+](=O)[O-])c1C (configuration not stated) | > 11 µM (inactive) |
| Nc1ccc(S(=O)(=O)NNC(=O)C(=O)NNc2ccccn2)cc1 | > 11 µM (inactive) |
| CCOc1cc(N2CCOCC2)c(OCC)cc1NC(C)C(=O)N1CCN(CC)CC1 (configuration not stated) | > 11 µM (inactive) |
| CCOC(=O)c1c2ccc(OCC(=O)N/N=C/c3ccc(Cl)cc3)cc2n2ccccc12 | > 11 µM (inactive) |
| COc1cc(N=Cc2c(O)c3ccccc3oc2=O)c(OC)cc1Cl | > 11 µM (inactive) |
| COCCCNC(=O)C(C#N)c1nc2ccccc2nc1N1CCCC1 (configuration not stated) | > 11 µM (inactive) |
| Cc1ncc(/C=C2\C(=O)Nc3ccccc32)[nH]1 | > 11 µM (inactive) |
| Cn1cc(/C=C2\C(=O)NC(=O)N(c3ccccc3)C2=O)c2ccccc21 | > 11 µM (inactive) |
| COc1ccc(N=Cc2cc3c(cc2O)OC(N)=C(C#N)C3c2ccccc2)cc1 (configuration not stated) | > 11 µM (inactive) |
| N#Cc1c(C#N)c(-c2ccccc2)n(-c2ccc(C(=O)O)cc2)c1N | > 11 µM (inactive) |
| Cc1ccc(N2C(=O)/C(=C/c3ccc(CN(CCC#N)S(C)(=O)=O)o3)C(=O)NC2=S)cc1 | > 11 µM (inactive) |
| CC(C)OCC(O)CN1CCN(CCN2C(=O)c3cccc4cccc(c34)C2=O)CC1 (configuration not stated) | > 11 µM (inactive) |
| CN(C)c1ccc(/C=C2\N=C(C(C)(C)C)OC2=O)cc1 | > 11 µM (inactive) |
| Cc1cc(/C=C2\SC(=O)N(C)C2=O)c(C)n1-c1cccc(C(=O)O)c1 | > 11 µM (inactive) |
| C=CC1=C(C(=O)O)N2C(=O)[C@@H](NC(=O)/C(=N\O)c3csc(N)n3)[C@H]2SC1 (stereo in doubt) | 0.521 µM |
| O=C(COC(=O)CCc1c[nH]c(=O)[nH]1)Nc1ccccc1Cl | > 11 µM (inactive) |
| Cn1c(=O)c(-c2cc(=O)[nH][nH]2)c(O)c2ccccc21 | > 11 µM (inactive) |
| CCC(C)n1c(=N)c(C#N)cc2c(=O)n3cccc(C)c3nc21 (configuration not stated) | > 11 µM (inactive) |
| CCOC(=O)c1cc(=O)n2nc(-c3ccc(C)cc3)nc2s1 | > 11 µM (inactive) |
| COC(=O)c1ccc(-n2c(C)cc(/C=N/n3cnnc3)c2C)cc1 | > 11 µM (inactive) |

Reference: PubChem BioAssay AID1959 (Broad Institute, 2009)
